These results are taken from patent US20100080770A1, “Hepatitis C Virus Inhibitors” (priority 2008, published 2010).

Where two headings read alike, the source gives them in different places.

Test [1] has as its target T1, HCV NS3/4A protease complex (Hepatitis C virus genotype 1a, UniProt P27958, C1454S/C1711G).
T1 construct: recombinant HCV NS3/4A protease complex (amino acids 1027 to 1711); inferred from the pET21b vector and Ni-NTA purification; made in house; host or cells: Escherichia coli BL21 (DE3)
The test is described as follows: FRET peptide assay to monitor HCV NS3/4A proteolytic activity. In kind it is biochemical. The following applies: HCV NS3/4A protease complex, strain not stated, read-out: IC50. From the text:
HCV NS3 protease complexes, derived from the BMS strain, H77 strain or J4L6S strain, were generated, as described below. These purified recombinant proteins were generated for use in a homogeneous assay (see below) to provide an indication of how effective compounds of the present disclosure would be in inhibiting HCV NS3 proteolytic activity.
The H77 and J4L6S strains were used for production of recombinant NS3/4A protease complexes. DNA encoding the recombinant HCV NS3/4A protease complex (amino acids 1027 to 1711) for these strains was manipulated as described by P. Gallinari et al. (see Gallinari P, Paolini C, Brennan D, Nardi C, Steinkuhler C, De Francesco R. Biochemistry. 38(17):5620-32, (1999)). Briefly, a three-lysine solubilizing tail was added at the 3′-end of the NS4A coding region. The cysteine in the P1 position of the NS4A-NS4B cleavage site (amino acid 1711) was changed to a glycine to avoid the proteolytic cleavage of the lysine tag. Furthermore, a cysteine to serine mutation was introduced by PCR at amino acid position 1454 to prevent the autolytic cleavage in the NS3 helicase domain. The variant DNA fragment was cloned in the pET21b bacterial expression vector (Novagen) and the NS3/4A complex was expressed in Escherichia coli strain BL21 (DE3) (Invitrogen) following the protocol described by P. Gallinari et al. (see Gallinari P, Brennan D, Nardi C, Brunetti M, Tomei L, Steinkuhler C, De Francesco R., J Virol. 72(8):6758-69 (1998)) with modifications. Briefly, the NS3/4A protease complex expression was induced with 0.5 millimolar (mM) Isopropyl β-D-1-thiogalactopyranoside (IPTG) for 22 hours (h) at 20° C. A typical fermentation (1 Liter (L)) yielded approximately 10 grams (g) of wet cell paste. The cells were resuspended in lysis buffer (10 mL/g) consisting of 25 mM N-(2-Hydroxyethyl)Piperazine-N′-(2-Ethane Sulfonic acid) (HEPES), pH 7.5, 20% glycerol, 500 mM Sodium Chloride (NaCl), 0.5% Triton X-100, 1 microgram/milliliter (“μg/mL”) lysozyme, 5 mM Magnesium Chloride (MgCl2), 1 μg/ml DnaseI, 5 mM β-Mercaptoethanol (βME), Protease inhibitor-Ethylenediamine Tetraacetic acid (EDTA) free (Roche), homogenized and incubated for 20 minutes (min) at 4° C. The homogenate was sonicated and clarified by ultra-centrifugation at 235000 g for 1 hour (h) at 4° C. Imidazole was added to the supernatant to a final concentration of 15 mM and the pH adjusted to 8.0. The crude protein extract was loaded on a Nickel-Nitrilotriacetic acid (Ni-NTA) column pre-equilibrated with buffer B (25 mM HEPES, pH 8.0, 20% glycerol, 500 mM NaCl, 0.5% Triton X-100, 15 mM imidazole, 5 mM βME). The sample was loaded at a flow rate of 1 ml/min. The column was washed with 15 column volumes of buffer C (same as buffer B except with 0.2% Triton X-100). The protein was eluted with 5 column volumes of buffer D (same as buffer C except with 200 mM Imidazole).
NS3/4A protease complex-containing fractions were pooled and loaded on a desalting column Superdex-S200 pre-equilibrated with buffer D (25mM HEPES, pH 7.5, 20% glycerol, 300 mM NaCl, 0.2% Triton X-100, 10 mM βME). Sample was loaded at a flow rate of 1 mL/min. NS3/4A protease complex-containing fractions were pooled and concentrated to approximately 0.5 mg/ml. The purity of the NS3/4A protease complexes, derived from the BMS, H77 and J4L6S strains, were judged to be greater than 90% by SDS-PAGE and mass spectrometry analyses. The enzyme was stored at −80° C., thawed on ice and diluted prior to use in assay buffer.
The purpose of this in vitro assay was to measure the inhibition of HCV NS3 protease complexes, derived from the BMS strain, H77 strain or J4L6S strain, as described above, by compounds of the present disclosure. This assay provides an indication of how effective compounds of the present disclosure would be in inhibiting HCV NS3 proteolytic activity.
In order to monitor HCV NS3/4A protease activity, an NS3/4A peptide substrate was used. […]

The subject of test [2] is HCV replicon in HUH-7 cells. The test is described as follows: HCV replicon assay (FRET, confirmed in the luciferase reporter assay). The settings on record: Hepatitis C virus, 96 h, 4 days. The class given is cell-based. The source says:
An HCV replicon whole cell system was established as described by Lohmann V, Korner F, Koch J, Herian U, Theilmann L, Bartenschlager R., Science 285(5424):110-3 (1999). This system enabled us to evaluate the effects of our HCV Protease compounds on HCV RNA replication. Briefly, using the HCV strain 1b sequence described in the Lohmann paper (Assession number: AJ238799), an HCV cDNA was synthesized by Operon Technologies, Inc. (Alameda, Calif.), and the full-length replicon was then assembled in plasmid pGem9zf(+) (Promega, Madison, Wis.) using standard molecular biology techniques. The replicon consists of (i) the HCV 5′ UTR fused to the first 12 amino acids of the capsid protein, (ii) the neomycin phosphotransferase gene (neo), (iii) the IRES from encephalomyocarditis virus (EMCV), and (iv) HCV NS3. to NS5B genes and the HCV 3′ UTR. Plasmid DNAs were linearized with Seal and RNA transcripts were synthesized in vitro using the T7 MegaScript transcription kit (Ambion, Austin, Tex.) according to manufacturer's directions. In vitro transcripts of the cDNA were transfected into the human hepatoma cell line, HUH-7. […] Resulting cell lines were characterized for positive and negative strand RNA production and protein production over time.
The HCV replicon FRET assay was developed to monitor the inhibitory effects of compounds described in the disclosure on HCV viral replication. HUH-7 cells, constitutively expressing the HCV replicon, were grown in Dulbecco's Modified Eagle Media (DMEM) (Gibco-BRL) containing 10% Fetal calf serum (FCS) (Sigma) and 1 mg/ml G418 (Gibco-BRL). Cells were seeded the night before (1.5×10^4 cells/well) in 96-well tissue-culture sterile plates. Compound and no compound controls were prepared in DMEM containing 4% FCS, 1:100 Penicillin/Streptomysin (Gibco-BRL), 1:100 L-glutamine and 5% DMSO in the dilution plate (0.5% DMSO final concentration in the assay). Compound/DMSO mixes were added to the cells and incubated for 4 days at 37° C. After 4 days, cells were first assessed for cytotoxicity using alamar Blue (Trek Diagnotstic Systems) for a CC50 reading. The toxicity of compound (CC50) was determined by adding 1/10th volume of alamar Blue to the media incubating the cells. After 4 h, the fluorescence signal from each well was read, with an excitation wavelength at 530 nm and an emission wavelength of 580 nm, using the Cytofluor Series 4000 (Perspective Biosystems). Plates were then rinsed thoroughly with Phosphate-Buffered Saline (PBS) (3 times 150 μl).
As a secondary assay, EC50 determinations from the replicon FRET assay were confirmed in a replicon luciferase reporter assay. Utilization of a replicon luciferase reporter assay was first described by Krieger et al (Krieger N, Lohmann V, and Bartenschlager R, J. Virol. 75(10):4614-4624 (2001)). The replicon construct described for our FRET assay was modified by inserting cDNA encoding a humanized form of the Renilla luciferase gene and a linker sequence fused directly to the 3′-end of the luciferase gene. This insert was introduced into the replicon construct using an Ascl restriction site located in core, directly upstream of the neomycin marker gene. The adaptive mutation at position 1179 (serine to isoleucine) was also introduced (Blight K J, Kolykhalov, A A, Rice, C M, Science 290(5498):1972-1974). A stable cell line constitutively expressing this HCV replicon construct was generated as described above. The luciferase reporter assay was set up as described for the HCV replicon FRET assay with the following modifications. Following 4 days in a 37° C./5% CO2 incubator, cells were analyzed for Renilla Luciferase activity using the Promega Dual-Glo Luciferase Assay System. Media (100 μl) was removed from each well containing cells. To the remaining 50 μl of media, 50 μl of Dual-Glo Luciferase Reagent was added, and plates rocked for 10 min to 2 h at room temperature. […]

T1 sequence (P27958 1027-1711 C1454S/C1711G, one chain of several): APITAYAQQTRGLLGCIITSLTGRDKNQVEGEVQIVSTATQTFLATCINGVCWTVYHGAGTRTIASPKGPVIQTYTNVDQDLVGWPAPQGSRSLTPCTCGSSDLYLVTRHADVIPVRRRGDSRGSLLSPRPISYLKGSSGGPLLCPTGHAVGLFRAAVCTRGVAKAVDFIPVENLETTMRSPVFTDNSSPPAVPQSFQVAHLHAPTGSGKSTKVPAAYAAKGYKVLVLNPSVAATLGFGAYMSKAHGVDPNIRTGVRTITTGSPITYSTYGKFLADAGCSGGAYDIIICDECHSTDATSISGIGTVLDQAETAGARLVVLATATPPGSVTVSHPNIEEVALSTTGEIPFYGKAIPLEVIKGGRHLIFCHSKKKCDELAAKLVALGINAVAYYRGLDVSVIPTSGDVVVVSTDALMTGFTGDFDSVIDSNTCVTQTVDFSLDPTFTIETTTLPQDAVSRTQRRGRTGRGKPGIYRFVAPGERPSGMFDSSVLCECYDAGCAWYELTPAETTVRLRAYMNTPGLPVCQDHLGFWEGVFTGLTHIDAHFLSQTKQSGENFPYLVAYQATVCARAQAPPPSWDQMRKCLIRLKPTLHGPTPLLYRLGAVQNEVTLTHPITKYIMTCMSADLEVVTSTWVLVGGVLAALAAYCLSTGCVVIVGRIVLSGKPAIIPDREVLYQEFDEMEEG

The term IC50 denotes the concentration that inhibits the measured activity by half. By EC50 is commonly meant the concentration needed to bring the measured effect to its halfway point. For the compound `C=C[C@@H]1C[C@]1(NC(=O)[C@@H]1C[C@]2(OC)CN1C(=O)[C@H](C(C)(C)C)NC(=O)OCC/C=C\c1cc3cc2ccc3cc1OC)C(=O)NS(=O)(=O)C1CC1` [Example 1], in test [1] (numeric values), the 50% inhibitory concentration (IC50) was found to be 31 nM. Besides, a half-maximal effect in test [2] (numeric values) (EC50) was put at 120 nM.
`C=C[C@@H]1C[C@]1(NC(=O)[C@@H]1C[C@]2(OC)CN1C(=O)[C@H](C(C)(C)C)NC(=O)OCCC/C=C\c1cc3cc2ccc3cc1OC)C(=O)NS(=O)(=O)C1CC1` [Example 4]: in test [1] (class symbols), the IC50 was 1 to 10 nM. The EC50 in test [2] (class symbols) was 1 to 10 nM.
Consider `C=C[C@@H]1C[C@]1(NC(=O)[C@@H]1C[C@]2(OC)CN1C(=O)[C@H](C(C)(C)C)NC(=O)OCCCCC=Cc1cc3cc2ccc3cc1OC)C(=O)NS(=O)(=O)C1CC1` [Example 7], for which, in test [1] (class symbols), the IC50 lay in the range of 1 to 10 nM. In test [2] (class symbols), this compound came in with an EC50 of 1 to 10 nM.
Consider `C=C[C@@H]1C[C@]1(NC(=O)[C@@H]1C[C@]2(OC)CN1C(=O)[C@H](C(C)(C)C)NC(=O)OCC(C)(C)C/C=C\c1cc3cc2ccc3cc1OC)C(=O)NS(=O)(=O)C1CC1` [Example 8], for which the IC50 in test [1] (class symbols) lay within 1 to 10 nM. Further, the EC50 in test [2] (class symbols) was 1 to 10 nM.
Consider `C=C[C@@H]1C[C@]1(NC(=O)[C@@H]1C[C@]2(OC)CN1C(=O)[C@H](C(C)(C)C)NC(=O)OCC(C)(C)CCCc1cc3cc2ccc3cc1OC)C(=O)NS(=O)(=O)C1CC1` [Example 9], for which the IC50 in test [1] (class symbols) was 1 to 10 nM. Also, the EC50 in test [2] (class symbols) was 1 to 10 nM.
With `COc1cc2ccc3cc2cc1CCCC(C)(C)COC(=O)N[C@@H](C(C)(C)C)C(=O)N1C[C@@]3(OC)C[C@H]1C(=O)N[C@]1(C(=O)NS(=O)(=O)C2CC2)C[C@H]1C1CC1` [Example 10], in test [1] (class symbols), the IC50 lay in the range of 11 to 12 nM. The same compound came in with an EC50 in test [2] (class symbols) of 21 to 150 nM.
As for `COc1cc2ccc3cc2cc1CCCC(C)(C)COC(=O)N[C@@H](C(C)(C)C)C(=O)N1C[C@@]3(OC)C[C@H]1C(=O)N[C@]1(C(=O)NS(=O)(=O)C2CC2)C[C@H]1C(F)F` [Example 11], the IC50 in test [1] (class symbols) was 1 to 10 nM. The EC50 in test [2] (class symbols) lay in the range of 11 to 20 nM.
Turning to `C=C[C@@H]1C[C@]1(NC(=O)[C@@H]1C[C@]2(OC)CN1C(=O)[C@H](C(C)(C)C)NC(=O)OCCCCCCc1cc3cc2ccc3cc1OC)C(=O)NS(=O)(=O)C1CC1` [Example 12], in test [1] (numeric values), the IC50 turned out to be 1 nM. In test [2] (numeric values), this compound showed an EC50 of 2.84 nM.
As for `COc1cc2ccc3cc2cc1CCCCCCOC(=O)N[C@@H](C(C)(C)C)C(=O)N1C[C@@]3(OC)C[C@H]1C(=O)N[C@]1(C(=O)NS(=O)(=O)C2CC2)C[C@H]1C1CC1` [Example 13], in test [1] (class symbols), the IC50 was in the range of 1 to 10 nM. Besides, the EC50 in test [2] (class symbols) is 11 to 20 nM.
For `C=C[C@@H]1C[C@]1(NC(=O)[C@@H]1C[C@]2(OC)CN1C(=O)[C@H](C(C)(C)C)NC(=O)OCC(C)(C)CCCCc1cc3cc2ccc3cc1OC)C(=O)NS(=O)(=O)C1CC1` [Example 14] the same measures were 1 to 10 nM and 1 to 10 nM.
The corresponding values for `COc1cc2ccc3cc2cc1CCCCC(C)(C)COC(=O)N[C@@H](C(C)(C)C)C(=O)N1C[C@@]3(OC)C[C@H]1C(=O)N[C@]1(C(=O)NS(=O)(=O)C2CC2)C[C@H]1C1CC1` [Example 15] are 1 to 10 nM and 1 to 10 nM.
For `CC[C@@H]1C[C@]1(NC(=O)[C@@H]1C[C@]2(OC)CN1C(=O)[C@H](C(C)(C)C)NC(=O)OCC(C)(C)CCCCc1cc3cc2ccc3cc1OC)C(=O)NS(=O)(=O)C1CC1` [Example 16] the same measures were 11 to 12 nM and 21 to 150 nM.
For `C=C[C@@H]1C[C@]1(NC(=O)[C@@H]1C[C@]2(OC)CN1C(=O)[C@H](C(C)(C)C)NC(=O)OCCC(C)(C)CCCc1cc3cc2ccc3cc1OC)C(=O)NS(=O)(=O)C1CC1` [Example 17], the IC50 in test [1] (class symbols) was in the range of 1 to 10 nM. The half-maximal effective concentration (EC50) in test [2] (class symbols) is 1 to 10 nM.
As for `COc1cc2ccc3cc2cc1CCCC(C)(C)CCOC(=O)N[C@@H](C(C)(C)C)C(=O)N1C[C@@]3(OC)C[C@H]1C(=O)N[C@]1(C(=O)NS(=O)(=O)C2CC2)C[C@H]1C(F)F` [Example 18], the IC50 in test [1] (class symbols) was 1 to 10 nM. In test [2] (class symbols), this compound registered an EC50 of 1 to 10 nM.
As for `COc1cc2ccc3cc2cc1CCCC(C)(C)CCOC(=O)N[C@@H](C(C)(C)C)C(=O)N1C[C@@]3(OC)C[C@H]1C(=O)N[C@]1(C(=O)NS(=O)(=O)C2CC2)C[C@H]1C1CC1` [Example 19], the IC50 in test [1] (class symbols) lay in the range of 1 to 10 nM. Further, the EC50 in test [2] (class symbols) fell in the range of 1 to 10 nM.
